# Measured values reported in US20240116913A1, “A CRYSTALLINE FORM OF (4-METHYL-2-[1,2,3]TRIAZOL-2-YL-PHENYL)-[(R)-3-(3-[1,2,3]TRIAZOL-2-YL-BENZYL)-MORPHOLIN-4-YL]-METHANONE” (Idorsia Pharmaceuticals Ltd, priority 2021, published 2024).
# How the values were obtained:
# [1] = Moisture sorption at 25° C. (dynamic vapor sorption, DVS); type: physicochemical; conditions: for Moisture picked up (mass change): range 0 to 95% RH at 25° C.
# Experimental: Moisture sorption isotherm was collected on a multi sample instrument SPS-100n (Projekt Messtechnik, Ulm, Germany) operated in stepping mode at 25° C. The sample was allowed to equilibrate at 40% RH before starting a pre-defined humidity program 40-0-95-0-95-40% RH, steps of 5% RH and with a maximal equilibration time of 24 hours per step were applied. About 20 to 30 mg of each sample was used. The hygroscopic classification as disclosed herein is done according to the European Pharmacopeia Technical Guide (1999, page 86), that is, a material is classified as “not hygroscopic or “non-hygroscopic” when the increase in mass, as measured by the DVS method disclosed herein, is less than 0.2%; a material is classified as slightly hygroscopic, when the increase in mass is less than 2% and equal to or greater than 0.2% mass/mass; finally, a material is classified as hygroscopic, when the increase in mass is less than 15% and equal to or greater than 2% mass/mass. The mass change between 40% relative humidity and 80% relative humidity in the first adsorption scan was considered. Data shown are from the first upwards cycle.
# [2] = Bulk density and tapped density (Densi-tap tapping device); type: physicochemical; conditions: for Tapped density: after 3750 tappings; for Hausner ratio (HR) (ratio between tapped and bulk density): calculated from measured tapped and bulk densities; for Type of powder flow (flowability class from HR): classified from Hausner ratio; for Bulk density: powder without any processing, 10 mL glass cylinder
# Experimental: Bulk and tapped density were measured on a Densi-tap tapping device from Matec using a 10 mL glass cylinder and using powder without any processing. For tapped density the value is reported after 3750 tappings.
# [3] = listed as crystalline form 1 of ACT-539313
Moisture picked up (mass change) [1],Tapped density ([2]; listed as amorphous ACT-539313) [g/mL],Hausner ratio (HR) (ratio between tapped and bulk density) ([2]; listed as amorphous material),Bulk density ([2]; listed as amorphous ACT-539313) [g/mL],Tapped density [2] [g/mL],"Hausner ratio (HR) (ratio between tapped and bulk density) [2, 3]",Bulk density [2] [g/mL],SMILES,"Hygroscopic classification according to Ph. Eur. ([1]; DVS at 25° C., mass change between 40% and 80% RH, first adsorption scan)",Type of powder flow (flowability class from HR) ([2]; listed as amorphous material),"Hygroscopicity compared between solid forms ([1]; cf. FIGS. 4 and 5, Tables 1 and 3)","Type of powder flow (flowability class from HR) [2, 3]"
~2.6% of moisture in the range 0,0.13,2.26,0.06,–,–,–,"Cc1ccc(C(=O)N2CCOC[C@H]2Cc2cccc(-n3nccn3)c2)c(-n2nccn2)c1 [ACT-539313 in amorphous state, (4-Methyl-2-[1,2,3]triazol-2-yl-phenyl)-[(R)-3-(3-[1,2,3]triazol-2-yl-benzyl)-morpholin-4-yl]-methanone]","slightly hygroscopic according to (classified as slightly hygroscopic, when the increase in mass is less than 2% and equal to or greater than 0.2% mass/mass)","very, very poor (“very, very poor” (HR>1.60))",–,–
Material picks up about 0.1%,–,–,–,0.46,1.47,0.31,"Cc1ccc(C(=O)N2CCOC[C@H]2Cc2cccc(-n3nccn3)c2)c(-n2nccn2)c1 [ACT-539313 in crystalline form 1, (4-Methyl-2-[1,2,3]triazol-2-yl-phenyl)-[(R)-3-(3-[1,2,3]triazol-2-yl-benzyl)-morpholin-4-yl]-methanone]",–,–,less hygroscopic than the amorphous ACT-539313,very poor (“very poor” (HR from 1.46 to 1.59))
